Test results taken from patent publication US20250230190A1, “COMPOSITION FOR ENHANCING ACTIVITY OF NATURAL KILLER CELLS” (Ingenium Therapeutics, priority 2021, published 2025).
Where no end group is shown, it is not given here.

Columns and labels:
primary NK cells = test: Recovery of cytotoxicity of primary NK cells decreased by TGF-β (calcein-AM release); type: cell-based, human; details: effector primary NK cells pretreated with 20 μM peptide plus 10 ng/ml TGF-β; target cells H460, H3122, K562; E:T 10:1; 4 hours
Protocol: 2 μl of Rosettesep Human CD3 depletion cocktail (STEMCELL technologies, catalog #15621) per 1 ml of blood was added to umbilical cord blood (IRB approval number P01-201610-31-002) donated from the hospital and reacted for 20 minutes. […] At this time, it could be noted that the blood and the Ficoll layer were not mixed. To separate the cell layer from the blood, red blood cells and CD3 cells were isolated and discharged from the blood by centrifugation under conditions of 2000 rpm and Decel 0 for 25 minutes using a centrifuge (Beckman Coulter). The CD3-isolated cells reacted with 10 ml of an ACK buffer for 10 minutes to remove remaining red blood cells, and then washed twice using phosphate-buffered saline (PBS) added with 2% FBS. The washing was performed by centrifuging at 1500 rpm for 5 minutes using a centrifuge (Beckman Coulter) to remove the supernatant. The cells obtained above were used to be cultured as NK cells.
The NK cells were cultured by adding alpha-MEM (Welgene) added with 10% FBS (Corning, United States origin, 35-015-CV) with 10 ng/ml IL-15 (Peprotech), 10 ng/ml IL-21 (Peprotech), […] hydrocortisone (Peprotech) and 1% antibiotics-antimycotic (Gibco). […]

NK92 cells [1] = test: Recovery of cytotoxicity of NK92 cells decreased by TGF-β (calcein-AM release); type: cell-based; details: effector NK92 cells pretreated with 20 μM peptide or 5 μM SB431542 plus 10 ng/ml TGF-β; target cells H460, H3122, K562; E:T 20:1; 4 hours
Protocol: NK92 cells were cultured in a 37° C. CO2 incubator (water jacketed incubator, Thermo electron corporation) supplied with 5% CO2 by adding an α-MEM (Welgene) culture medium added with 12.5% fetal bovine serum (FBS, Corning, united states origin, 35-015-CV) and 12.5% horse serum (Gibco) according to ATCC culture conditions with 0.2 mM myo-inositol, 0.1 mM 2-mercaptoethanol, 0.02 mM folic acid, 1% antibiotics-antimycotic (Gibco) and IL-2 cytokine (Peprotech) at a concentration of 20 ng/ml to be used as a culture medium.
The cells were cultured in about 20 to 30 ml in a T-75 flask (Thermo) at a concentration of 1×10^5 cells/ml, and centrifuged at 1000 rpm for 5 minutes every 2 to 3 days using a centrifuge (Beckman Coulter) to remove the supernatant, and then the culture medium was replaced. […]
The target cells stained with calcein-AM in Example [2-2] were dispensed in a 96-well plate, respectively, and treated with the effector cells prepared in Example [2-1]. […] The culture medium cultured above was centrifuged at 100 rcf for 5 minutes to separate the supernatant, and 100 μl each was dispensed into a 96-well black plate, and then ELISA assay (Fluorescence 480 nm/530 nm, SpectraMax i3x Molecular Device) was performed.

[2] = system: H460 lung cancer cell line; test: Recovery of sensitivity of NK cells to cancer cells decreased by TGF-β; type: cell-based; details: H460 target cells pretreated with 20 μM peptide or 5 μM SB431542 plus 10 ng/ml TGF-β; fresh NK92 effector cells, E:T 20:1; 4 hours
Protocol: To this end, first, 1×10^5 cells/ml of a H460 lung cancer cell line was added with 20 μM the peptide of Example [1-5] or 5 μM a TGF-β signal inhibitor SB431542, respectively, cultured at 37° C. for 2 hours, and then added with 10 ng/ml of TGF-β, and cultured again for 24 hours under the same conditions, respectively. Then, the cells were added with 20 μM the peptide of Example [1-5] or 5 μM SB431542, cultured at 37° C. for 2 hours, and then added with 10 ng/ml of TGF-β, and cultured under the same conditions for 24 hours, respectively. 1×10^6 cells/ml of the H460 cells cultured above were cultured for 1 hour at 37° C. with a culture medium added with 5 μl of calcein-AM (Invitrogen) and stained, and then centrifuged at 1000 rpm for 5 minutes and washed to be prepared as ‘target cells.’
As described above, the target cells stained with calcein-AM were dispensed in a 96-well plate, respectively, and treated with untreated (fresh) NK92 cells as effector cells at an E:T ratio of 20:1, and cultured at 37° C. for 4 hours. The culture medium cultured above was centrifuged at 100 rcf for 5 minutes to separate the supernatant, and 100 μl each was dispensed into a 96-well black plate, and then ELISA assay (Fluorescence 480 nm/530 nm, SpectraMax i3x Molecular Device) was performed.

NK92 cells [3] = test: Fratricide inhibition of NK cells; type: cell-based; details: NK92 target cells pretreated with 20 μM peptide or 5 μM SB431542 plus 10 ng/ml TGF-β; fresh NK92 (20:1) or primary NK (10:1) effector cells; 4 hours
Protocol: To this end, 1×10^6 cells/ml of the NK92 cells cultured in the same manner as Example [2-1] were cultured for 1 hour at 37° C. with a culture medium added with 5 μl of calcein-AM (Invitrogen) and stained, and then centrifuged at 1000 rpm for 5 minutes and washed to be prepared as ‘target cells.’ As described above, the target cells stained with calcein-AM were dispensed in a 96-well plate, respectively, and treated with untreated (fresh) NK92 cells or primary NK cells as effector cells at the ratio of 20:1 or 10:1 in the same manner as Example [2-3], and cultured at 37° C. for 4 hours. The culture medium cultured above was centrifuged at 100 rcf for 5 minutes to separate the supernatant, and 100 μl each was dispensed into a 96-well black plate, and then ELISA assay (Fluorescence 480 nm/530 nm, SpectraMax i3x Molecular Device) was performed.

Compound	cytotoxicity of primary NK cells (primary NK cells)	cytotoxicity of NK92 cells (NK92 cells [1])	cytotoxicity of the NK cells for treated H460 cells [2]	fratricide activity of the NK cells (NK92 cells [3])
GSKKVILDLPLVI [peptide of Example [1-5]]	equally confirmed	recovered	recovered again	
NC(=O)c1ccc(-c2nc(-c3ccc4c(c3)OCO4)c(-c3ccccn3)[nH]2)cc1 [SB431542]		recovered	recovered again	significantly reduced
